Structures can show the parent of a compound that is named as a salt.
Columns and labels:
[1] = Stability under high or low humidity condition; assay type: physicochemical; details: below about 50° C.
[2] = Acute toxicity, oral administration to a rat (LD50); details: in vivo
Protocol: The LD50 value of this compound is in oral administration to a rat is 6000 mg/kg or more.

Compound: O=C(O)C=Cc1ccc(Cn2ccnc2)cc1 [4-(1-imidazolylmethyl)cinnamic acid hydrochloride monohydrate]
- stability [1]: stable
- LD50 [2]: ≥ 6000 mg/kg
